Experimental data published in patent US20170152258A9, “Substituted Pyridopyrazines as Syk Inhibitors” (HUTCHISON MEDIPHARMA LIMITED, priority 2012, published 2017).

Assays:
Syk kinase = Syk kinase (Homo sapiens, UniProt P43405); assay: SYK Enzymatic Assay (Z-LYTE Tyr 2 peptide); assay type: biochemical; details: 8 concentrations 1 μM down to 0.0003 μM
Summary of the method: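 Z-LYTE format using Tyr 2 peptide. After the 1 h room-temperature kinase reaction, development reagent was added for 1 h, then stop reagent. Fluorescence was read at 445 and 520 nm. Compounds were tested at 8 concentrations, 1 μM down to 0.0003 μM (1:3 dilutions).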

RBL-2H3 cells = assay: IgE-induced Beta-hexosaminidase secretion in RBL-2H3 cells; assay type: cell-based; details: Rattus norvegicus, RBL-2H3, IgE-induced Beta-hexosaminidase secretion, DNP-BSA stimulation
Description: For the determination of IgE-induced Beta-hexosaminidase secretion, RBL-2H3 cells (SIBS) are seeded in 96 well plates at 4×10^4 cells per well and incubated in MEM media with 15% FBS and Glutamine ([…]) for 4 hours and sensitized with 0.5 ug/ml of SPE-7 overnight. Cells are washed 3 times with Tyrode's buffer and incubated in the presence or absence of various concentrations of the testing compound for 20 min at 37° C., 5% CO2. Cells are stimulated by adding 10 uL of DNP-BSA solution (150 ng/mL) to each well and incubating for 45 minutes at 37° C., 5% CO2. Then, 45 μL of the supernatant is taken and incubated with 100 μL of 1 mM 4-Nitrophenyl N-acetyl-β-D-glucosaminide (Sigma, Cat. No. N9376), which is diluted in 0.05 M citrate buffer (pH 4.5), for 1.5 hr at 37° C. The reactions are quenched by adding 185 μL of 0.05 M sodium carbonate buffer (pH 10.0). Plates are read at 405 nm on Multiskan (MK 3).

| SMILES | IC50 (Syk kinase) [nM] | IC50 (RBL-2H3 cells) [nM] |
| --- | --- | --- |
| CN(C)c1ccc(-c2cc3nccnc3c(OC[C@@H]3CN(C(=O)C(F)F)CCO3)n2)cc1 [Compound 100] | 31 | 68 |
| CC(C)(C)c1ccc(-c2cc3nccnc3c(OC[C@@H]3CN(C(N)=O)CCO3)n2)cc1 [Compound 255] | 27 | 97 |
| CS(=O)(=O)N1CCO[C@H](COc2nc(-c3ccc(C4(O)CCC4)cc3)cc3nccnc23)C1 [Compound 308] | 35 | 97 |
| CN(C)c1ccc(-c2cc3nccnc3c(O[C@@H]3CCOC3)n2)cc1Cl [Compound 154] | 43 | 78 |
| O=S(=O)(C1CC1)N1CCO[C@H](COc2nc(-c3ccc(N4CCOCC4)cc3)cc3nccnc23)C1 [Compound 83] | 74 | 92 |
| CN(C)c1ccc(-c2cc3nccnc3c(OC[C@@H]3CN(S(=O)(=O)C4CC4)CCO3)n2)cc1 [Compound 90] | 46 | 61 |
| CCS(=O)(=O)N1CCN(c2ccc(-c3cc4nccnc4c(OC[C@@H]4CN(C(C)=O)CCO4)n3)cc2)CC1 [Compound 25] | 67 | 155 |
| CN(C)c1ccc(-c2cc3nccnc3c(OC[C@@H]3CN(C(=O)CC#N)CCO3)n2)cc1 [Compound 76] | 40 | 88 |
| CC(O)c1ccc(-c2cc3nccnc3c(OC[C@@H]3CN(S(C)(=O)=O)CCO3)n2)cc1 (stereo partly drawn) [Compound 213, 1-(4-(5-(((S)-4-(methylsulfonyl)morpholin-2-yl)methoxy)pyrido[3,4-b]pyrazin-7-yl)phenyl)ethanol] | 57 | 71 |
| CC(=O)N1CCO[C@H](COc2nc(-c3ccc4c(c3)COC4(C)C)cc3nccnc23)C1 [Compound 297] | 58 | 88 |
| CC(=O)N1CCO[C@H](COc2nc(-c3ccc4c(c3)CCCN4C)cc3nccnc23)C1 [Compound 185] | 40 | 64 |
| Cn1ccc2cc(-c3cc4nccnc4c(OC[C@@H]4CN(S(C)(=O)=O)CCO4)n3)ccc21 [Compound 39] | 33 | 76 |
| CS(=O)(=O)N1CCO[C@H](COc2nc(-c3ccc(N4CCOCC4)cc3)cc3nccnc23)C1 [Compound 12] | 24 | 21 |
| COCCS(=O)(=O)N1CCO[C@H](COc2nc(-c3ccc(N4CCOCC4)cc3)cc3nccnc23)C1 [Compound 66] | 58 | 230 |
| CC(=O)N1CCO[C@H](COc2nc(-c3ccc(NC(C)C)cc3)cc3nccnc23)C1 [Compound 141] | 98 | 81 |
| NC(=O)N1CCO[C@H](COc2nc(-c3ccc(C4CCOCC4)cc3)cc3nccnc23)C1 [Compound 241, (S)-2-(((7-(4-(tetrahydro-2H-pyran-4-yl)phenyl)pyrido[3,4-b]pyrazin-5-yl)oxy)methyl)morpholine-4-carboxamide] | 47 | 124 |
| CC(=O)N1CCN(c2ccc(-c3cc4nccnc4c(O[C@@H]4CCOC4)n3)cc2C)CC1 [Compound 205] | 27 | 19 |
| CNS(=O)(=O)N1CCO[C@H](COc2nc(-c3ccc(OC)c(OC)c3)cc3nccnc23)C1 [Compound 220] | 86 | 69 |
| CC(=O)N1CCN(c2ccc(-c3cc4nccnc4c(OC[C@@H]4CN(S(C)(=O)=O)CCO4)n3)cc2)CC1 [Compound 122] | 15 | 73 |
| CS(=O)(=O)N1CCN(c2ccc(-c3cc4nccnc4c(O[C@@H]4CCOC4)n3)cc2)CC1 [Compound 153] | 33 | 26 |
| CS(=O)(=O)N1CCO[C@H](COc2nc(-c3ccc(C4(O)CCOCC4)cc3)cc3nccnc23)C1 [Compound 314] | 43 | 117 |
| NS(=O)(=O)N1CCO[C@H](COc2nc(-c3ccc(C4(O)CCC4)cc3)cc3nccnc23)C1 [Compound 312] | 69 | 873 |
| CN(C)CCS(=O)(=O)N1CCO[C@H](COc2nc(-c3ccc(N4CCOCC4)cc3)cc3nccnc23)C1 [Compound 65] | 53 | 181 |
